Test results reported in PMC11647725, “Discovery of 4-(5-Membered)Heteroarylether-6-methylpicolinamide Negative Allosteric Modulators of Metabotropic Glutamate Receptor Subtype 5” (ACS Medicinal Chemistry Letters, 2024).
Like-named read-outs stand apart in the source and are kept apart here.

Assays:
human mGlu5 = molecular target: T1, human mGlu5 (Homo sapiens, UniProt P41594); assay: Calcium mobilization assay in human mGlu5-HEK293A cells (NAM, EC80 glutamate); type: cell-based; details: for % GluMin: efficacy of the NAM to reduce an EC80 response of glutamate; for pIC50: n = 2 in triplicate; for IC50: read-out: hmGlu5 IC50; for fold increase in hmGlu5 potency: 22fC vs 22bC, 22gA vs 22iA, 22iA vs 22hA, 22iB vs 22hB
T1 construct: expressed in transfected cells

[1] = IV plasma-brain level determination (PBL) in rat; type: in vivo; details: male, Sprague-Dawley, brain and plasma, SD rat, 0.2 mg/kg IV; for Kp at 0.25 h: total brain-to-plasma partition ratio; for Kp uu at 0.25 h: unbound brain-to-plasma partition ratio
[2] = Binding in plasma from human (equilibrium dialysis); type: in vitro ADME; details: for fraction unbound at 6 h, 5 µM: human, plasma, read-out: Human fu,plasma
Method: (§1) Binding in plasma from rat and human.
(§2) Determination of compounds’ fraction unbound (f u) in plasma from rat and human was conducted in vitro via equilibrium dialysis using HTDialysis membrane plates. Dialysis membranes (four paired strips per HTD assay) were hydrated as described by the manufacturer and inserted into the HTD plate, which was assembled and prepared for sample addition by the dispensing of blank buffer (DPBS, 100 µL/well) into the ‘top half’ of each membrane-split well. Each compound was diluted into plasma from each species (5 µM final concentration), which was aliquoted in triplicate to the ‘bottom half’ of the prepared HTD plate wells. The HTD plate was sealed and incubated for 6 hours at 37 °C. Following incubation, each well (both top and bottom halves) were transferred (20 µL) to the corresponding wells of a 96-shallow-well (V-bottom) plate. The daughter plates were then matrix-matched (buffer side wells received equal volume of plasma, and plasma side wells received equal volume of buffer), and extraction solution (120 µL; acetonitrile containing 50 nM carbamazepine as IS) was added to all wells of both daughter plates to precipitate protein and extract test article. The plates were then sealed and centrifuged (3500 rcf) for 10 minutes at ambient temperature. Supernatant (60 µL) from each well of the daughter plates was then transferred to the corresponding wells of new daughter plates (96-shallow-well, V bottom) containing water (Milli-Q, 60 µL/well), and the plates were sealed in preparation for LC-MS/MS analysis (see below). fu was calculated as (analyte to IS MS peak area ratio from Trans-buffer side) / (analyte to IS MS peak area ratio from Cis-plasma side). Mean values for each species were calculated from 3 replicates. […]
(§3) Mean values for each species were calculated from 3 replicates. […]
(§4) After 5 minutes (pre-incubation), reactions were initiated by addition of nicotinamide adenine dinucleotide phosphate (NADPH, 1 mM final concentration). At selected time intervals (0, 3, 7, 15, 25, and 45 minutes) post-addition of NADPH, aliquots (50 µL) were taken and placed into a 96-shallow-well plate containing ice cold acetonitrile (150 µL) with carbamazepine (IS, 50 nM). The plates were then centrifuged (3000 rcf at 4 °C) for 10 minutes. The supernatants were transferred to a new 96-shallow-well daughter plate and diluted (1:1 v/v) with water (Milli-Q filtered). The plates were then sealed in preparation for LC-MS/MS analysis (see below).

[3] = Intrinsic clearance in rat liver microsomes; type: in vitro ADME; details: for CLint scaled at 40 min, 1 µM: pH 7.4, rat liver microsomes; for CLhep, rat: predicted hepatic clearance based on microsomal CLint
Method: (§5) Mean values for each species were calculated from 3 replicates.
(§6) Intrinsic Clearance in Rat and Human Liver Microsomes
(§7) The in vitro intrinsic clearance (CL int) was investigated in commercially obtained hepatic microsomes from rat and human donors using the substrate depletion (i.e., loss-of-parent vs. time, or t 1/2 method) approach with analyte detection via liquid chromatography-tandem mass spectrometry (LC-MS/MS). For each species, mean %parent remaining values at each time point were calculated from replicates raw data (analyte:IS peak area ratios) and used to determine in vitro t 1/2 and CLint.
as §4, with “Experiments were carried out using a robot-assisted (TECAN model Evo 200). Compound was incubated (1 µM final concentration) in buffer (100 mM potassium phosphate pH 7.4 with 3 mM MgCl2) containing hepatic microsomes (0.5 mg/mL final concentration) from multiple species, discretely, at 37 °C under constant orbital shaking. After” for “After”
(§8) Raw LC-MS/MS peak area data generated from the assay samples were used to construct natural log-transformed %parent remaining vs. time plots (using t = 0 minute post-NADPH addition sample data as starting point set to 100%). In vitro compound half-life (t 1/2) values were obtained using the following […]
(§9) k is the slope from linear regression analysis of the natural log-transformed data (using means from Where all replicates at each time point). Resulting t 1/2 values were then used to calculate hepatic CLint values according to the following equation and with the use of species-specific scale-up factors for liver weight (grams) per total body weight (kg): […]
(§10) CLint = in vitro t1/2 x 0.5 mg microsomes x 1 gram liver x kg body wt aScale-up factors used are 45 (rat) and 20 (human).4
(§11) Predicted hepatic clearance (CLhep) was calculated using the following equation: […]
(§12) Qh represents hepatic blood flow (mL/min/kg): 21 for human, 70 for rat, and 90 for mouse.
(§13) Prepared samples were injected (10 µL each) onto an AB Sciex Triple Quad 4500 mass spectrometer system with an Agilent 1260 Infinity II pump and autosampler. Mass spectrometer conditions are described in Table S1. Quantitation of compounds was performed via AB Sciex Multiquant software using the raw analyte:IS peak area ratios. The typical detection range was 0.5 ng/mL to ≥ 5,000 ng/mL utilizing a quadratic equation regression with 1/x2 weighting.
(§14) Correction for dilution of all brain samples (in extraction buffer and subsequently in blank plasma, as previously described) was performed post-quantitation. The corrections for dilution in extraction buffer employed correction factors specific to each brain weight (not shown).

[4] = Binding in plasma from rat (equilibrium dialysis); type: in vitro ADME; details: for stability in rat plasma: samples had low analyte peaks; for fraction unbound at 6 h, 5 µM: rat, plasma, equilibrium dialysis, read-out: Rat fu,plasma
Method: as §1, §2, §3, §4

[5] = Intrinsic clearance in human liver microsomes; type: in vitro ADME; details: for CLint scaled at 40 min, 1 µM: pH 7.4, human liver microsomes; for CLhep, human: predicted hepatic clearance based on microsomal CLint
Method: as §5, §6, §7
as §4, with “Experiments were carried out using a robot-assisted (TECAN model Evo 200). Compound was incubated (1 µM final concentration) in buffer (100 mM potassium phosphate pH 7.4 with 3 mM MgCl2) containing hepatic microsomes (0.5 mg/mL final concentration) from multiple species, discretely, at 37 °C under constant orbital shaking. After” for “After”
as §8, §9, §10, §11, §12, §13, §14

[6] = Binding in brain homogenate from rat (equilibrium dialysis); type: in vitro ADME; details: rat brain homogenates; for fraction unbound at 6 h, 1 µM: rat, brain homogenate, read-out: Rat fu,brain
Method: transferred to the corresponding wells of new daughter plates (96-shallow-well, V bottom) containing water (Milli-Q, 60 µL/well), and the plates were sealed in preparation for LC-MS/MS analysis (see below). fu was calculated as (analyte to IS MS peak area ratio from Trans-buffer side) / (analyte to IS MS peak area ratio from Cis-plasma side). Mean values for each species were calculated from 3 replicates.
Binding in brain homogenate from rat.
Determination of fraction unbound (f u) in brain homogenate from rat was conducted using the same methodology and procedure than described for plasma protein binding assay with the following modifications: 1) a final compound concentration of 1 μM was used, 2) naïve rat brains were homogenized in DPBS (1:3 composition of brain: DPBS, w/w) using a Mini-Bead Beater™ machine in order to obtain […]
The diluted fraction unbound (f u2) in brain was calculated as (analyte to IS MS peak area ratio from Trans-buffer side) / (analyte to IS MS peak area ratio from Cis-brain homogenate side). Undiluted fraction unbound for the brain was calculated using the following equation: […]
as §3

[7] = human mGlu5-HEK293A cells, EC80 fixed concentration of glutamate

T1 sequence (P41594 21-1212): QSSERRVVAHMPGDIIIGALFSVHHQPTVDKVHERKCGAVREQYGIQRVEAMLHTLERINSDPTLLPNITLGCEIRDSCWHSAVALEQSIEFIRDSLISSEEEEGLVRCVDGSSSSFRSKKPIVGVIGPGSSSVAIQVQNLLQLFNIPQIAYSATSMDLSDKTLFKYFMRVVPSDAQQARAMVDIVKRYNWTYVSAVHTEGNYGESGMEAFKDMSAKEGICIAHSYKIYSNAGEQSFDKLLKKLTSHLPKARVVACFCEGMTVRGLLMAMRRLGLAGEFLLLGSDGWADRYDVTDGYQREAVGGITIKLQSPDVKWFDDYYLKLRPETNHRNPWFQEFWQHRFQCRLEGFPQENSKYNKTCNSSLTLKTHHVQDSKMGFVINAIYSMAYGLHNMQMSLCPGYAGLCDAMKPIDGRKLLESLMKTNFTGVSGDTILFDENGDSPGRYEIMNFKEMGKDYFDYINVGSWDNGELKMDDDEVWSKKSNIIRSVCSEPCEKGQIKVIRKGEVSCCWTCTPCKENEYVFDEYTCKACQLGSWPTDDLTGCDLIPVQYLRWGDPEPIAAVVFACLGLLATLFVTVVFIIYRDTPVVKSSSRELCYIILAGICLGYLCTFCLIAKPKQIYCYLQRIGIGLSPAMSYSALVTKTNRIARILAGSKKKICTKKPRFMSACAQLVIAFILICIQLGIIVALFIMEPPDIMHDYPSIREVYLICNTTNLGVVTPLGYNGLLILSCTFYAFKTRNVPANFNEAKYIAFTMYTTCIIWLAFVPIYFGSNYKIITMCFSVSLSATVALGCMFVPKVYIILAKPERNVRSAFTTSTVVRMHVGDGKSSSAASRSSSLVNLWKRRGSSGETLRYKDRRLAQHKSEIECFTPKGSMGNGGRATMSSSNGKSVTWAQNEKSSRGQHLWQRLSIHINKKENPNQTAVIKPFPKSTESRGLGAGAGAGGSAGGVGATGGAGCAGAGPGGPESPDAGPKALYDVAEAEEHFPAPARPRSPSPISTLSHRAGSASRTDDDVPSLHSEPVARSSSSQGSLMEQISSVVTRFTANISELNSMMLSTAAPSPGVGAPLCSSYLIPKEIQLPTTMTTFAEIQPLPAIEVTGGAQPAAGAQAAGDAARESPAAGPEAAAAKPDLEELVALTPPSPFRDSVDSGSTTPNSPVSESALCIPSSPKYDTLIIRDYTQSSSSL

Structure (SMILES)	% GluMin (human mGlu5; human mGlu5-HEK293A cells) [%]	pIC50 (human mGlu5; [7])	IC50 (human mGlu5; [7]) [nM]	IC50 (human mGlu5) [nM]	Kp at 0.25 h [1]	fold increase in hmGlu5 potency (human mGlu5) [fold]	fraction unbound at 6 h, 5 µM [2]	CLint scaled at 40 min, 1 µM [3] [mL/min/kg]	CLhep, rat [3] [mL/min/kg]	stability in rat plasma [4]	CLint scaled at 40 min, 1 µM [5] [mL/min/kg]	CLhep, human [5] [mL/min/kg]	Rat fu,brain ([6]; fraction unbound)	fraction unbound at 6 h, 1 µM [6]	Kp uu at 0.25 h [1]	Human fu,plasma ([2]; fraction unbound)	fraction unbound at 6 h, 5 µM [4]
Cc1cccc(NC(=O)c2cc(Oc3c(C)nn(C)c3C)cc(C)n2)n1 [22aC]	2	5.55	2840	2800													
Cc1cccc(NC(=O)c2cc(Oc3ncn(C)n3)cc(C)n2)n1 [22dC]	2	6.00	1010														
Cc1cc(Oc2cc(C)n(C)n2)cc(C(=O)Nc2nc(C)cs2)n1 [22eB]	2	5.77	1720														
Cc1cccc(NC(=O)c2cc(Oc3cc(C)nn3C)cc(C)n2)n1 [22fC]	2	6.69	207		1.02	7.8	0.037	436	60	possibly be unstable in rat plasma	71	16	0.008	< 0.01			
Cc1cc(Oc2cnn(C)c2C(F)(F)F)cc(C(=O)Nc2ccc(F)cn2)n1 [22gA]	2	6.93	120		3.08	~3	0.012	82	38	possibly be unstable in rat plasma	11	7					
Cc1cc(Oc2cnn(C)c2C(F)(F)F)cc(C(=O)Nc2nc(C)cs2)n1 [22gB]	2	7.58	26		5.57			817	65	possibly be unstable in rat plasma	70	16					
Cc1cccc(NC(=O)c2cc(Oc3cnn(C)c3C(F)(F)F)cc(C)n2)n1 [22gC]							0.011	600	63		68	16		0.005			
Cc1cc(Oc2ccnn2C)cc(C(=O)Nc2ccc(F)cn2)n1 [22hA]	2	6.30	506														
Cc1cc(Oc2ccnn2C)cc(C(=O)Nc2nc(C)cs2)n1 [22hB]	2	7.02	96		1.13		> 0.04	45	27		216	19		0.029	0.15	0.062	
Cc1cccc(NC(=O)c2cc(Oc3ccnn3C)cc(C)n2)n1 [22hC]	2	7.04	91		2.42		0.034	320	57	potentially be unstable in rat plasma	241	19		0.021			
Cc1cc(Oc2cnn(C)c2)cc(C(=O)Nc2nc(C)cs2)n1 [22iB]	2	7.56	28		1.37	3.4	0.063	44	27		46	14		0.014	0.22		0.089
Cc1cccc(NC(=O)c2cc(Oc3cnn(C)c3)cc(C)n2)n1 [22iC]	1	7.38	41		1.04		0.041	234	54		77	17		0.013	0.23		0.059

The next lines start with results.

% GluMin (human mGlu5; human mGlu5-HEK293A cells) [%]	pIC50 (human mGlu5; [7])	IC50 (human mGlu5; [7]) [nM]	IC50 (human mGlu5) [nM]	Structure (SMILES)	Kp at 0.25 h [1]	fold increase in hmGlu5 potency (human mGlu5) [fold]	fraction unbound at 6 h, 5 µM [2]	CLint scaled at 40 min, 1 µM [3] [mL/min/kg]	CLhep, rat [3] [mL/min/kg]	stability in rat plasma [4]	CLint scaled at 40 min, 1 µM [5] [mL/min/kg]	CLhep, human [5] [mL/min/kg]	Rat fu,brain ([6]; fraction unbound)	fraction unbound at 6 h, 1 µM [6]	Kp uu at 0.25 h [1]	Human fu,plasma ([2]; fraction unbound)	fraction unbound at 6 h, 5 µM [4]
2	5.91	1250		Cc1cc(Oc2cn(C)nc2C)cc(C(=O)Nc2nc(C)cs2)n1 [22bB]													
2	5.74	1850		Cc1cc(Oc2cc(C(F)F)n(C)n2)cc(C(=O)Nc2nc(C)cs2)n1 [22cB]													
2	5.73	1890		Cc1cc(Oc2ncn(C)n2)cc(C(=O)Nc2nc(C)cs2)n1 [22dB]													
2	5.55	2820	2800	Cc1csc(NC(=O)c2cc(Oc3cnn(C)c3)c(C(F)(F)F)cn2)n1 [24B]													
2	5.89	1330	1300	Cc1cccc(NC(=O)c2cc(Oc3cnn(C)c3)c(C(F)(F)F)cn2)n1 [24C]													
